In US9133235B2, “Macrocyclic antagonists of the motilin receptor for treatment of gastrointestinal dysmotility disorders” (Ocera Therapeutics, Inc., priority 2006, dated 2015):
Where two headings read alike, the source gives them in different places.

Columns and labels:
human motilin receptor = human motilin receptor (Homo sapiens, UniProt O43193); assay: Competitive radioligand binding assay (motilin receptor); design: purchased PerkinElmer (SignalScreen) 6110544; host or cells: CHO cells, stably transfected; membranes
human motilin receptor, sequence (O43193 whole entry): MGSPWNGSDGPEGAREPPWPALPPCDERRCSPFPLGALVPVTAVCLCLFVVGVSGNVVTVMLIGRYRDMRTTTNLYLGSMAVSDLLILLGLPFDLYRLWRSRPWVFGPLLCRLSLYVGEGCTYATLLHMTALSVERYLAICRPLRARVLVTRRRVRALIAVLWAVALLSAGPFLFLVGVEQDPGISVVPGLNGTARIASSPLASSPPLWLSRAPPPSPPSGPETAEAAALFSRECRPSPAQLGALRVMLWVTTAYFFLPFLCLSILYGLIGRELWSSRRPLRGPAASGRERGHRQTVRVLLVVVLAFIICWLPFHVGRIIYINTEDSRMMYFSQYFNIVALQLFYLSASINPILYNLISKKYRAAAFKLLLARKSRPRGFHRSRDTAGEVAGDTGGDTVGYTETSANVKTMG
Outline: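 Membranes from CHO cells stably expressing human motilin receptor were incubated 2 h at room temperature with [125I]-motilin (0.04-0.06 nM final) and compound (0.0050–10 μM) in Tris-HCl pH 7.4, MgCl2, EDTA, 0.1% BSA. Filter-bound counts were measured; 1 μM motilin defined non-specific binding; variable-slope non-linear regression.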

CYP2A6 = molecular target: T1, CYP2A6 (Homo sapiens, UniProt P11509); assay: Cytochrome P450 inhibition, CYP2A6; assay type: in vitro ADME; conditions: Supersomes; read-out: IC50 (μM) 2A6
T1 construct: purchased BD Gentest, Becton-Dickinson (Supersomes); host or cells: insect cells (microsomes)
T1 sequence (P11509 1-494): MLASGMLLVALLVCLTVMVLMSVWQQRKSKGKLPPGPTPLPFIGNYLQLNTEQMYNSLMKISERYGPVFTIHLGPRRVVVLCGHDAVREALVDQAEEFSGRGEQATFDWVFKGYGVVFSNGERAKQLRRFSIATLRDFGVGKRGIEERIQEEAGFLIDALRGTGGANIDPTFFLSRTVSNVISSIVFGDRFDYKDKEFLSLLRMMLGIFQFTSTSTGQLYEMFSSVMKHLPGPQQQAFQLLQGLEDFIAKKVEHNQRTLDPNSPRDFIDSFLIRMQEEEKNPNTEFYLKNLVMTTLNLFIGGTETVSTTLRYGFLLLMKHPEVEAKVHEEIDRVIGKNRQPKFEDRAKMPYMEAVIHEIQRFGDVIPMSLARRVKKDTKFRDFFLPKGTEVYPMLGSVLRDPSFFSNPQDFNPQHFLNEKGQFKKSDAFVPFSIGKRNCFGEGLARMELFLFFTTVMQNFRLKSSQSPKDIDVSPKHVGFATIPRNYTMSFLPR
Text: (§1) F. Assay for Cytochrome P450 Inhibition
(§2) Cytochrome P450 enzymes are implicated in the phase I metabolism of drugs. The majority of drug-drug interactions are metabolism-based and, moreover, these interactions typically involve inhibition of cytochrome P450s. Six CYP450 enzymes (CYP1A2, CYP2C8, CYP2C9, CYP2C19, CYP2D6 and CYP3A4) appear to be commonly responsible for the metabolism of most drugs and the associated drug-drug interactions. Assays to determine the binding of compounds of the invention to the various metabolically important isoforms of cytochrome P450 metabolizing enzymes are commercially available, for example NoAb BioDiscoveries (Mississaugua, ON, Canada) and Absorption Systems (Exton, Pa., USA). As well, a number of appropriate methods have been described or reviewed in the literature. (White, R. E. Ann. Rev. Pharmacol. Toxicol. 2000, 40, 133-157; Li, A. P. Drug. Disc. Today 2001, 6, 357-366; Turpeinen, M.; Korhonen, L. E. Tolonen, A.; et al. Eur. J. Pharm. Sci. 2006, 29, 130-138.)
(§3) The concentration of the inhibitor or test compound that inhibited metabolite formation by 50% (IC50) was calculated by non-linear regression analysis of the % inhibition vs. log concentration (M) curve.

CYP3A4 = molecular target: T2, CYP3A4 (Homo sapiens, UniProt P08684); assay: Cytochrome P450 inhibition, CYP3A4; assay type: in vitro ADME; conditions: Supersomes
T2 construct: purchased BD Gentest, Becton-Dickinson (Supersomes); host or cells: insect cells (microsomes)
T2 sequence (P08684 whole entry): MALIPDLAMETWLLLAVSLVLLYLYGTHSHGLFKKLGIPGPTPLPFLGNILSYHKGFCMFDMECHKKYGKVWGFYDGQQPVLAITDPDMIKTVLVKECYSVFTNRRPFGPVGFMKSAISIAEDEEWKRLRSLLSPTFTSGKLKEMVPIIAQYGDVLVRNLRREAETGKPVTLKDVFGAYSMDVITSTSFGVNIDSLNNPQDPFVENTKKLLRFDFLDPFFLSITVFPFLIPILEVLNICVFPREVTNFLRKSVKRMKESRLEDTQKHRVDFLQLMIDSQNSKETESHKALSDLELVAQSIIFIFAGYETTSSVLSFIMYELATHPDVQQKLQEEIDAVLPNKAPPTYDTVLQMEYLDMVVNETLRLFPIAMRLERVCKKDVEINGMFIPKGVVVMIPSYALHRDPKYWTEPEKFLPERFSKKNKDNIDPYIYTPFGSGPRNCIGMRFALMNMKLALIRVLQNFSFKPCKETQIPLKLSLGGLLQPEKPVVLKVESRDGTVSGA
Text: as §1, §2, §3

CYP2C19 = molecular target: T3, CYP2C19 (Homo sapiens, UniProt P33261); assay: Cytochrome P450 inhibition, CYP2C19; assay type: in vitro ADME; conditions: Supersomes; read-out: IC50 (μM) 2C19
T3 construct: purchased BD Gentest, Becton-Dickinson (Supersomes); host or cells: insect cells (microsomes)
T3 sequence (P33261 whole entry): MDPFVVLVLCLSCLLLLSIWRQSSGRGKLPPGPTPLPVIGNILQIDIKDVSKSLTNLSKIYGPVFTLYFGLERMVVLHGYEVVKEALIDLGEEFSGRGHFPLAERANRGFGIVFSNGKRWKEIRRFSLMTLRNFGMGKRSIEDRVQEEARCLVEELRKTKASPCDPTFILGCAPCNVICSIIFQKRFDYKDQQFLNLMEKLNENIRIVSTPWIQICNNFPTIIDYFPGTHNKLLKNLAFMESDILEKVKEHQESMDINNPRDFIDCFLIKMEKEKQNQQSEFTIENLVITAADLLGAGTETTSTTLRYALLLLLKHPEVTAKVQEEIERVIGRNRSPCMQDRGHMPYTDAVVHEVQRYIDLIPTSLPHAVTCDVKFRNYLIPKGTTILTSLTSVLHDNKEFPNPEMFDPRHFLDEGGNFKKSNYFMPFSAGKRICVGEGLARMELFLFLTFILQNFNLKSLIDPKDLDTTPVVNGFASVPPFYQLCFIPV
Text: as §1, §2, §3

[1] = substrate BFC, read-out: IC50 (μM) 3A4 (BFC)
[2] = substrate BQ, read-out: IC50 (μM) 3A4 (BQ)
[3] = [125I]-motilin competition, membranes of CHO cells with human motilin receptor, read-out: Ki

Ki (human motilin receptor; Table 7, read-out: Binding Ki)	IC50 (CYP2A6)	IC50 (CYP3A4; [1])	IC50 (CYP3A4; [2])	Ki (human motilin receptor; [3])	IC50 (CYP2C19)	Compound
≤ 0.01 µM	–	–	–	–	–	CC(C)[C@H]1NC(=O)[C@@H](Cc2cccc(C(F)(F)F)c2)NCCOc2ccccc2CCCNC(=O)[C@H](CN(C)C)NC1=O [Compound 502]
≤ 0.01 µM	> 100 µM	2.37 µM	10.4 µM	≤ 0.01 µM	37 µM	CCC[C@@H]1NC(=O)[C@@H](C(C)C)NC(=O)[C@@H](Cc2cccc(F)c2)N[C@@H](C)COc2ccccc2CCCNC1=O [Compound 551]
–	–	–	–	≤ 0.01 µM	–	CCC[C@@H]1NC(=O)[C@@H](C(C)C)NC(=O)[C@@H](Cc2ccc(O)c(Cl)c2)N[C@@H](C)COc2ccccc2CCCNC1=O [Compound 552]
≤ 0.01 µM	> 100 µM	0.0192 µM	3.48 µM	≤ 0.01 µM	> 100 µM	CCC[C@@H]1NC(=O)[C@@H](C(C)C)NC(=O)[C@@H](Cc2ccc(O)c(C(C)(C)C)c2)NCCOc2ccccc2CCCNC1=O [Compound 553]
